Experimental data: patent US20240002383A1 (priority 2021, published 2024)
“Also recorded” adds a separate entry of the source.

Assays:
[1] = system: IFNb, CXCL-10, CXCL-9, CCL-2, TNFα, IL-1β, and IL-6 in lymph nodes; assay: Innate immune response in mice after intramuscular injection of STING agonists (qPCR of cytokines in draining lymph nodes); assay type: in vivo; conditions: 20 μg intramuscular, 6 hrs
[2] = system: cytokines in draining lymph nodes; conditions: mouse, in vivo
HIV NHR trimer (N3G) = assay type: in vivo; conditions: mice, CF501 as adjuvant, sera 7 days after the second vaccination
[3] = system: IFNγ, TNFα and IL-4 secretion; set-up: species or system mice; conditions: mouse, in vivo
SARS-CoV-2 pseudovirus = system: SARS-CoV-2 pseudovirus; set-up: species or system New Zealand white rabbits; conditions: rabbit, in vivo

| Compound | production of the cytokines in lymph nodes [1] | neutralizing antibodies relative to Alum (in words) (SARS-CoV-2 pseudovirus) | also measured |
| --- | --- | --- | --- |
| Nc1nc2c(ncn2[C@@H]2O[C@@H]3COP(=O)(O)O[C@H]4[C@@H](O)[C@H](n5cnc6c(N)ncnc65)O[C@@H]4COP(=O)(O)O[C@H]3[C@H]2O)c(=O)[nH]1 [cGAMP, 3′-3′ cGAMP, reference compound] | can activate a large production of the cytokines | – | – |
| CCn1nc(C)cc1C(=O)Nc1nc2cc(C(N)=O)cnc2n1C/C=C/Cn1c(NC(=O)c2cc(C)nn2CC)nc2cc(C(N)=O)cc(OCCCN3CCOCC3)c21 [CF501, (E)-3-(4-(5-carbamoyl-2-(1-ethyl-3-methyl-1H-pyrazole-5-carboxamido)-7-(3-morpholinopropoxy)-1H-benzo[d]imidazol-1-yl)but-2-en-1-yl)-2-(1-ethyl-3-methyl-1H-pyrazole-5-carboxamido)-3H-imidazo[4,5-b]pyridine-6-carboxamide] | can activate a large production of the cytokines; also recorded: more potently than cGAMP | – | inflammation in the mice (transient activation, safety) [2]: does not cause inflammation in the mice; antibody immune response to the HIV NHR trimer (N3G) (HIV NHR trimer (N3G)): can significantly enhance the antibody immune response in vaccinated mice; T cell immune response in mice [3]: can strongly activate the T cell immune response in mice |
| CCn1nc(C)cc1C(=O)Nc1nc2cc(C(N)=O)cnc2n1C/C=C/Cn1c(NC(=O)c2cc(C)nn2CC)nc2cc(C(N)=O)cc(OCCN3CCOCC3)c21 [CF510, (E)-3-(4-(5-carbamoyl-2-(1-ethyl-3-methyl-1H-pyrazole-5-carboxamido)-7-(2-morpholinoethoxy)-1H-benzo[d]imidazol-1-yl)but-2-en-1-yl)-2-(1-ethyl-3-methyl-1H-pyrazole-5-carboxamido)-3H-imidazo[4,5-b]pyridine-6-carboxamide] | – | could not induce more potent neutralizing antibodies relative to Alum in the rabbits | – |
| CCn1nc(C)cc1C(=O)Nc1nc2cc(C(N)=O)ccc2n1C/C=C/Cn1c(NC(=O)c2cc(C)nn2CC)nc2cc(C(N)=O)cnc21 [CF502, (E)-3-(4-(5-carbamoyl-2-(1-ethyl-3-methyl-1H-pyrazole-5-carboxamido)-1H-benzo[d]imidazol-1-yl)but-2-en-1-yl)-2-(1-ethyl-3-methyl-1H-pyrazole-5-carboxamido)-3H-imidazo[4,5-b]pyridine-6-carboxamide] | – | could not induce more potent neutralizing antibodies relative to Alum in the rabbits | – |
| CCn1nc(C)cc1C(=O)Nc1nc2cc(C(N)=O)cnc2n1C/C=C/Cn1c(NC(=O)c2cc(C)nn2CC)nc2cc(C(N)=O)cc(OCCCN3CCNCC3)c21 [CF508, (E)-3-(4-(5-carbamoyl-2-(1-ethyl-3-methyl-1H-pyrazole-5-carboxamido)-7-(3-(piperazin-1-yl)propoxy)-1H-benzo[d]imidazol-1-yl)but-2-en-1-yl)-2-(1-ethyl-3-methyl-1H-pyrazole-5-carboxamido)-3H-imidazo[4,5-b]pyridine-6-carboxamide] | – | could not induce more potent neutralizing antibodies relative to Alum in the rabbits | – |
| CCn1nc(C)cc1C(=O)/N=c1\n(C)c2cc(C(N)=O)cnc2n1C/C=C/Cn1/c(=N/C(=O)c2cc(C)nn2CC)n(C)c2cc(C(N)=O)cc(OCCCN3CCOCC3)c21 [CF512, (E)-3-((E) 4-((E)-5-carbamoyl-2-((1-ethyl-3-methyl-1H-pyrazole-5-carbonyl)imino)-3-methyl-7-(3-morpholinopropoxy)-2,3-dihydro-1H-benzo[d]imidazol-1-yl)but-2-en-1-yl)-2-((1-ethyl-3-methyl-1H-pyrazole-5-carbonyl)imino)-1-methyl-2,3-dihydro-1H-imidazo[4,5-b]pyridine-6-carboxamide] | – | could not induce more potent neutralizing antibodies relative to Alum in the rabbits | – |
